Measured values reported in patent publication US9061984B2 (University of Louisville Research Foundation, Inc., priority 2008, dated 2015).
pIC50: −log10 of the molar value. In brackets after ≈: the same amount, converted by molar mass. Like-named read-outs stand apart in the source and are kept apart here.

Key:
[1] = Cytotoxicity on VERO cells (MTT), anti-T. cruzi study; details: African green monkey
[2] = tested on: 3T3 cells; assay: Cell growth inhibition bioassay (sulforhodamine B); type: cell-based, mouse; details: Mus musculus, NIH3T3; 48 h, SRB; read-out: GI50 in indicated cell line: 3T3
Protocol: (§1) The cytotoxicity of compounds was assayed as follows. […] Appropriate solvent controls were tested for comparison. The percent inhibition of cell growth relative to the control was evaluated colorimetrically using a sulforhodamine B dye by comparison to the control. The calorimetric procedure followed that published in Skehan et al., J. Nat. Cancer Inst., […], pp. 1107-1112 (1990) and Boyd & Paull, Drug Dev. Res., Vol. 34, pp. 91-109 (1995). […] The cell lines are: 3T3 cells are BALB/3T3 clone A31 embryonic mouse fibroblast cells; H460 cells are human large cell lung cancer cells; DU145 cells are human prostate carcinoma cells; MCF-7 cells are human breast adenocarcinoma cells; M-14 cells are human melanoma cells; HT-29 cells are human colon adenocarcinoma cells; PC3 cells are human prostate adenocarcinoma cells; K562 cells are human chronic myelogenous leukemia cells; and VERO cells are African Green Monkey kidney epithelial cells.

[3] = tested on: VERO cells; assay: Cell growth inhibition bioassay (sulforhodamine B); type: cell-based, African Green Monkey; details: Chlorocebus sabaeus, Vero; 48 h, SRB; read-out: GI50 in indicated cell line: VERO
Protocol: as §1

[4] = Toxicity to peritoneal macrophages (Trypan Blue count); type: cell-based, BALB/C mouse; details: BALB/C, mouse, Cytotoxicity Macrophages IC50
Protocol: (§2) Peritoneal macrophages were prepared as follows. Non-inflammatory macrophages (10^6) were collected from each BALB/C mouse. The cells adhered at 37° C. after 2 h under 5% CO2 in a CO2 incubator. The plates were then rinsed two to three times with 0.5 mL of RPMI+buffer MOPS without fetal calf serum to eliminate non-adhering cells. The supernatant on the plates was replaced by fresh medium (RPMI+glutamine+FCS+antibiotics), 0.5 mL of medium per well. To determine the toxicity of the compounds to macrophages, dilutions of compounds were added on a part of the macrophages prepared above. […] The medium was then removed and 1 μL of sterile Trypan Blue was added. Cover glasses N° 1 were left where cells were plated and then the number of macrophages in a microscope was determined with a haemocytometer. All experiments were performed in triplicate.

[5] = Cytotoxicity VERO cell (Table 6); details: African green monkey, VERO cells
[6] = tested on: Trypanosoma cruzi (Tulahuen C4); assay: In vitro anti-T. cruzi activity (β-galactosidase CPRG colorimetric assay in VERO monolayer); type: cell-based; details: for IC50 / inhibition at 10 µg/mL / pIC50: Trypanosoma cruzi, TULAHUEN, Vero; for inhibition at 10 µg/mL: 120 h, 10 μg/mL of each compound, 120 hours, read-out: T. cruzi Inhib. (%); for pIC50: Table 3, read-out: IC50 T. cruzi
[7] = tested on: M. tuberculosis H37Rv; assay: Conventional aerobic (MABA) culture assay, luminescence MIC; type: cell-based, Mycobacterium tuberculosis
[8] = tested on: axenic amastigotes of L. amazonensis (strain MHOM/BR/76/LTB-012); assay: microbe, parasite or virus in culture; details: Leishmania amazonensis
[9] = tested on: axenic amastigotes of L. amazonensis (strain MHOM/BR/76/LTB-012); details: Table 8b
[10] = tested on: MCF-7 cells; assay: Cell growth inhibition bioassay (sulforhodamine B); type: cell-based, human; details: Homo sapiens, MCF7; 48 h, SRB; read-out: GI50 in indicated cell line: MCF-7
Protocol: as §1

[11] = tested on: K562 cells; assay: Cell growth inhibition bioassay (sulforhodamine B); type: cell-based, human; details: Homo sapiens, K562; 48 h, SRB; read-out: GI50 in indicated cell line: K562
Protocol: as §1

[12] = tested on: H460 cells; assay: Cell growth inhibition bioassay (sulforhodamine B); type: cell-based, human; details: Homo sapiens, NCI-H460; 48 h, SRB; read-out: GI50 in indicated cell line: H460
Protocol: as §1

[13] = tested on: HT-29 cells; assay: Cell growth inhibition bioassay (sulforhodamine B); type: cell-based, human; details: Homo sapiens, HT-29; 48 h, SRB; read-out: GI50 in indicated cell line: HT-29
Protocol: as §1

[14] = tested on: DU145 cells; assay: Cell growth inhibition bioassay (sulforhodamine B); type: cell-based, human; details: Homo sapiens, DU-145; 48 h, SRB; read-out: GI50 in indicated cell line: DU145
Protocol: as §1

[15] = tested on: M-14 cells; assay: Cell growth inhibition bioassay (sulforhodamine B); type: cell-based, human; details: Homo sapiens, M14; 48 h, SRB; read-out: GI50 in indicated cell line: M-14
Protocol: as §1

[16] = tested on: VERO cells; assay: Cytotoxicity on VERO cells (MTT), anti-T. cruzi study; details: Chlorocebus sabaeus, Vero
[17] = tested on: peritoneal macrophages; assay: Toxicity to peritoneal macrophages (Trypan Blue count); type: cell-based, BALB/C mouse; details: Mus musculus, Peritoneal macrophage, 48 h, read-out: IC50 Macrophage
Protocol: as §2

[18] = VERO cells, IC50 - VERO Cytotoxicity, Table 2
[19] = Table 2, read-out: IC50 - T. cruzi
[20] = 72 h, read-out: IC50 L. amazonensis

Row | Structure (SMILES) | pIC50 ([16]; read-out: IC50 VERO, Table 3) | IC50 [1, 18] [µg/mL] | pIC50 ([17]; Table 7) | inhibition at 10 µg/mL [6] [%] | IC50 [6, 19] [µg/mL] | pIC50 [6] | pIC50 [8, 20] | also measured
1 | COc1cccc(/C=N\Nc2ncnc3sc4c(c23)CCCC4)c1 [II-11] | – | – | – | – | – | – | – | IC50 ([1]; VERO cells, Cytotoxicity VERO Lab B, Lab B): 5 µg/mL (≈ 14.8 µM); GI50 [2]: 6 µg/mL (≈ 17.7 µM); GI50 [3]: 6.2 µg/mL (≈ 18.3 µM); IC50 at 48 h [4]: 5.5 µM; IC50 [5]: 22.7 µg/mL (≈ 67.1 µM); Selectivity Index Lab B ([6]; IC50, VERO/IC50, T. cruzi, Lab B): 0.9; IC50 ([6]; Lab A, read-out: T. cruzi IC50 Lab A): 1.5 µg/mL; IC50 ([6]; Lab B, read-out: T. cruzi IC50 Lab B): 5.7 µg/mL; MIC ([7]; Mycobacterium tuberculosis, 168 h, aerobic, 7 days, H37Rv): 40.4 µg/mL (≈ 119 µM); Selectivity Index H37Rv ([7]; VERO vs MABA MIC): 0.6; pIC50 ([8]; read-out: L. amazonensis IC50): 4.91; Selectivity Index [9]: 0.5; GI50 [10]: 5 µg/mL (≈ 14.8 µM); GI50 [11]: 5.3 µg/mL (≈ 15.7 µM); GI50 [12]: 5.5 µg/mL (≈ 16.3 µM); GI50 [13]: 2.5 µg/mL (≈ 7.39 µM); GI50 [14]: 6 µg/mL (≈ 17.7 µM); GI50 [15]: 48.4 µg/mL (≈ 143 µM)
2 | C=CCOc1cc(OC)c(C(=O)/C=C/c2cc(OC)c(OC)c(OC)c2)c(OCC=C)c1 [Compound I-20, (2E)-1-[2-Methoxy-4,6-bis(2-propenyloxy)phenyl]-3-(3,4,5-trimethoxyphenyl)-2-propen-1-one] | 4.39 | 18 (≈ 40.9 µM) | 4.92 | 76.1 | 1.5 | 5.47 | 5.09 | –
3 | C=CCOc1cc(OC)c(C(=O)/C=C/c2cccc(OC)c2)c(OCC=C)c1 [Compound I-11, (2E)-1-[2-Methoxy-4,6-bis(2-propenyloxy)phenyl]-3-(3-methoxyphenyl)-2-propen-1-one] | 3.85 | 54 (≈ 142 µM) | 4.88 | 72.4 | 5.37 | 4.85 | 5.06 | –
4 | C=CCOc1cc(OC)c(C(=O)/C=C/c2ccc(Cl)cc2)c(OCC=C)c1 [Compound I-14, (2E)-3-(4-Chlorophenyl)-1-[2-methoxy-4,6-bis(2-propenyloxy)phenyl]-2-propen-1-one] | 4.98 | 4 (≈ 10.4 µM) | 4.89 | 66.3 | 3.3 | 5.07 | 5.03 | –
5 | C=CCOc1cc(OC)c(C(=O)/C=C/c2ccccc2Br)c(OCC=C)c1 [Compound I-16] | – | – | – | 63.4 | 5.95 | 4.86 | 5.10 | pIC50 ([16]; read-out: IC50 VERO): 4.86; IC50 [1]: 6 µg/mL (≈ 14 µM); pIC50 [17]: 5.27
